Results: patent publication US8546593B2, “Methods and compositions for novel liquid crystal delivery systems” (Copperhead Chemical Company, Inc., priority 2009, dated 2013)
Values after ≈ are worked out from the molar mass of the structure shown.

Test system: Staphylococcus aureus
Assay: Minimum inhibitory concentration against Staphylococcus aureus
Type: cell-based
Conditions: read-out: minimum inhibitory concentration (MIC)

## CCCCCCCCCCCC(=O)OCC(O)CO (stereo not shown) [glycerol monolaurate]
  MIC: 55 µg/mL (≈ 200 µM)
